Source: patent US6987110B2, “Substituted pyrrolines as kinase inhibitors” (Janssen Pharmaceutica N.V., priority 2002, dated 2006)

Assays:
Type in all cases: biochemical
[1] = biological target: T1, recombinant rabbit GSK-3β (Oryctolagus cuniculus, UniProt G1T8E2); assay: Glycogen Synthase Kinase-3 assay (PPI-2 phosphorylation); details: for IC50: PPI-2 substrate, 33P-ATP, 90 minutes at 30° C.
T1 construct: purchased New England Biolabs
Method: Compounds were tested for the ability to inhibit recombinant rabbit GSK-3β using the following protocol. The test compound was added to a reaction mixture containing Protein phosphatase inhibitor-2 (PPI-2) (Calbiochem) (45 ng), rabbit GSK-3β (New England Biolabs) (0.75 units) and ^33P-ATP (1 μCi) in 50 mM Tris-HCl (pH 8.0), 10 mM MgCl2, 0.1% BSA, 1 mM DTT and 100 μM Sodium Vanadate. The mixture was reacted for 90 minutes at 30° C. to allow phosphorylation of the PPI-2 protein and then the protein in the reaction was precipitated using 10% TCA. The precipitated protein was collected on filter plates (MultiScreen-DV/Millipore), which were subsequently washed. Finally, the radioactivity was quantified using a TopCount Scintillation Counter (Packard). […] Staurosporine or Valproate, known inhibitors of GSK-3β, were used as a positive control for screening.

[2] = biological target: PKC isoform γ (Homo sapiens, UniProt P05129); assay: Protein Kinase C histone-based assay, PKC γ; details: histone III substrate, 30 μM ATP; error approximately within ±30 percent; read-out: PKC Activity, Gamma (IC50, Histone Based Assay)
Method: (§1) Compounds were evaluated for PKC selectivity using histone III as the substrate. The PKC isoforms α, β-II or γ were added to a reaction mixture that contained 20 mM HEPES, (pH 7.4), 940 μM CaCl2, 10 mM MgCl2, 1 mM EGTA. 100 μg/mL phosphatidylserine, 20 μg/mL diacylglycerol, 30 μM ATP, 1 μCi (^33P)ATP and 200 μg/mL histone III. The reaction was incubated for 10 min at 30° C. Reactions were terminated by TCA precipitation and spotting on Whatman P81 filters. Filters were washed in 75 mM phosphoric acid and the radioactivity quantified by liquid scintillation counting.

[3] = biological target: PKC isoform α (Homo sapiens, UniProt P17252); assay: Protein Kinase C histone-based assay, PKC α; details: histone III substrate, 30 μM ATP; error approximately within ±30 percent; read-out: PKC Activity, Alpha (IC50, Histone Based Assay)
Method: as §1

[4] = biological target: PKC isoform β-II (Homo sapiens, UniProt P05771); assay: Protein Kinase C histone-based assay, PKC β-II; details: histone III substrate, 30 μM ATP; error approximately within ±30 percent; read-out: PKC Activity, Beta II (IC50, Histone Based Assay)
Method: as §1

T1 sequence (G1T8E2 1-432): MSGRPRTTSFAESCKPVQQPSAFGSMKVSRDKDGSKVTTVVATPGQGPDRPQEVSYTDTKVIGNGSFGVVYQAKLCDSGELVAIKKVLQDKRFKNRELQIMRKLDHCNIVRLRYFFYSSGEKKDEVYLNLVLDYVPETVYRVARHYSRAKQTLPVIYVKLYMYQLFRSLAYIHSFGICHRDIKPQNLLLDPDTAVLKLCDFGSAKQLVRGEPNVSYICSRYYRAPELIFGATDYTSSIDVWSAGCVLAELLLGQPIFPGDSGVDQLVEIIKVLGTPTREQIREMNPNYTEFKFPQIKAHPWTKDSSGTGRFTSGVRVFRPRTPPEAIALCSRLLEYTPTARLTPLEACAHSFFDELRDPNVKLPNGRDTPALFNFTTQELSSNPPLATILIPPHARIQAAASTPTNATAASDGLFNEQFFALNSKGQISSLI
Sequence of PKC isoform β-II (P05771 1-673 isoform P05771-2): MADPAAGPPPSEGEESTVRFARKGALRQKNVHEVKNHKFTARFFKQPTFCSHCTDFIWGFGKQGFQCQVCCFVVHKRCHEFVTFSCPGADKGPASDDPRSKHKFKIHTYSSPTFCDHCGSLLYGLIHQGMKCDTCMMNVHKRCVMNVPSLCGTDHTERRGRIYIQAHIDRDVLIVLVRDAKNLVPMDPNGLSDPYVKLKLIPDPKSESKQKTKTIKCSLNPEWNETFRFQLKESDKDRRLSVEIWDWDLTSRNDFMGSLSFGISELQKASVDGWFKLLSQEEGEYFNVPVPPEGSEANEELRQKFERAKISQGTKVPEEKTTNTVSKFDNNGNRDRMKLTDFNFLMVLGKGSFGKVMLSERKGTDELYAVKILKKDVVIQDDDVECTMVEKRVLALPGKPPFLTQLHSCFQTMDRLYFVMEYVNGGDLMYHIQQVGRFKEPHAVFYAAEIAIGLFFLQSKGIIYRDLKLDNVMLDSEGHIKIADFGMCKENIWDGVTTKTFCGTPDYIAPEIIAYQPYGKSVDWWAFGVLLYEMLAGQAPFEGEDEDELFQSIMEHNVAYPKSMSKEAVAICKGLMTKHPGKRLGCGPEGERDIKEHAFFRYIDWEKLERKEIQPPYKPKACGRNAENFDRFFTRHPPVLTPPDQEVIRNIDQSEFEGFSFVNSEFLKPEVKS

| GSK-3β Assay Activity, percent at a single concentration ([1]; @ 1 μM) [% @ 1 μM] | IC50 [1] [nM] | IC50 [2] [nM] | IC50 [3] [nM] | IC50 [4] [nM] | SMILES |
| --- | --- | --- | --- | --- | --- |
|  | 24 |  |  |  | O=C1NC(=O)C(c2cn(-c3cccnc3)c3ccccc23)=C1c1cn(CCCO)c2ccccc12 [Compound 4, 3-[1-(3-hydroxypropyl)-1H-indol-3-yl]-4-[1-(3-pyridinyl)-1H-indol-3-yl]-1H-pyrrole-2,5-dione] |
|  | 17 | 4570 | 1010 | 123 | O=C1NC(=O)C(c2cn(-c3cccnc3)c3ccccc23)=C1c1cn(CCn2cnnn2)c2ccccc12 [Compound 10, 3-[1-(3-pyridinyl)-1H-indol-3-yl]-4-[1-[2-(1H-tetrazol-1-yl)ethyl]-1H-indol-3-yl]-1H-pyrrole-2,5-dione] |
|  |  |  | 58 | 23 | CN(C)CCCn1cc(C2=C(c3cn(-c4ccccc4)c4ccccc34)C(=O)NC2=O)c2ccccc21 [Compound 6, 3-[1-[3-(dimethylamino)propyl]-1H-indol-3-yl]-4-(1-phenyl-1H-indol-3-yl)-1H-pyrrole-2,5-dione] |
|  | 31 | 784 | 457 | 23 | O=C1NC(=O)C(c2cn(-c3cnc4ccccc4c3)c3ccccc23)=C1c1cn(CCO)c2ccccc12 [Compound 3, 3-[1-(2-hydroxyethyl)-1H-indol-3-yl]-4-[1-(3-quinolinyl)-1H-indol-3-yl]-1H-pyrrole-2,5-dione] |
|  | 116 | 1440 | 3040 | 60 | O=C1NC(=O)C(c2cn(-c3cncnc3)c3ccccc23)=C1c1cn(-c2cccnc2)c2ccccc12 [Compound 11, 3-[1-(3-pyridinyl)-1H-indol-3-yl]-4-[1-(5-pyrimidinyl)-1H-indol-3-yl]-1H-pyrrole-2,5-dione] |

Further lines, the compound ahead of its results:

| SMILES | GSK-3β Assay Activity, percent at a single concentration ([1]; @ 1 μM) [% @ 1 μM] | IC50 [1] [nM] | IC50 [2] [nM] | IC50 [3] [nM] | IC50 [4] [nM] |
| --- | --- | --- | --- | --- | --- |
| CN(C)CCCn1cc(C2=C(c3cn(-c4csc5ccccc45)c4ccccc34)C(=O)NC2=O)c2ccccc21 [Compound 5, 3-(1-benzo[b]thien-3-yl-1H-indol-3-yl)-4-[1-[3-(dimethylamino)propyl]-1H-indol-3-yl]-1H-pyrrole-2,5-dione] | 53 |  |  |  |  |
| O=C1NC(=O)C(c2cn(-c3cccnc3)c3ccccc23)=C1c1cn(CCO)c2ccccc12 [Compound 1, 3-[1-(2-hydroxyethyl)-1H-indol-3-yl]-4-[1-(3-pyridinyl)-1H-indol-3-yl]-1H-pyrrole-2,5-dione] |  | 25 | 274 | 64 | 6 |
| O=C1NC(=O)C(c2cn(-c3cncnc3)c3ccccc23)=C1c1cn(CCO)c2ccccc12 [Compound 2, 3-[1-(2-hydroxyethyl)-1H-indol-3-yl]-4-[1-(5-pyrimidinyl)-1H-indol-3-yl]-1H-pyrrole-2,5-dione] |  | 8 | 429 | 228 | 15 |
| Cn1cc(C2=C(c3cn(-c4cccnc4)c4ccccc34)C(=O)NC2=O)c2ccccc21 [Compound 8, 3-(1-methyl-1H-indol-3-yl)-4-[1-(3-pyridinyl)-1H-indol-3-yl]-1H-pyrrole-2,5-dione] |  | 100 |  |  |  |
| Cn1cc(C2=C(c3cn(-c4cncnc4)c4ccccc34)C(=O)NC2=O)c2ccccc21 [Compound 7, 3-(1-methyl-1H-indol-3-yl)-4-[1-(5-pyrimidinyl)-1H-indol-3-yl]-1H-pyrrole-2,5-dione] |  | 30 |  |  |  |
| O=C1NC(=O)C(c2cn(-c3cccnc3)c3ccccc23)=C1c1cn(CCn2ncnn2)c2ccccc12 [Compound 9, 3-[1-(3-pyridinyl)-1H-indol-3-yl]-4-[1-[2-(2H-tetrazol-2-yl)ethyl]-1H-indol-3-yl]-1H-pyrrole-2,5-dione] |  | 7 | 4950 | 910 | 54 |
